The source of these data is PubChem BioAssay (NCI).

What all share (assay): inhibition of tumour cell growth, NCI panel, 48 h
The subject of experiment [1] is A498 renal.
Experiment [2] deals with HT29 colon.
Experiment [3] has as its system KM12 colon.
Experiment [4] has as its system MDA-MB-435.
The subject of experiment [5] is MDA-N.
Experiment [6] concerns NCI-H226 lung.
Experiment [7] relates to NCI/ADR-RES ovarian.
Experiment [8] concerns OVCAR-3 ovarian.
Experiment [9] deals with OVCAR-8 ovarian.
Experiment [10] relates to SF-268 CNS.
The test system of experiment [11] is SF-295 CNS.
The subject of experiment [12] is SNB-75 CNS.
For experiment [13], the system named is T-47D breast.
Experiment [14] has as its system TK-10 renal.
Experiment [15] concerns UACC-62 melanoma.
Experiment [16] deals with HCC-2998 colon.

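Cultured in 96-well plates, cells were exposed to test compound for 48 hours across five concentrations. TGI: concentration producing complete growth inhibition.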

In the case of `O=C(CSc1nnc(-c2ccccn2)s1)N/N=C/c1ccccc1`, the TGI in [1], in experiment [2], in experiment [3], in experiment [4], in experiment [5] and in experiment [6] was > 100 µM in each case. For the same compound, the TGI in [7] was > 100 µM; in experiment [8], > 100 µM; in [9], > 100 µM; in experiment [10] it was > 100 µM; in experiment [11], > 100 µM; in experiment [12], 17 µM. The TGI in experiment [13], in experiment [14] and in experiment [15] was > 100 µM each time.

For `COc1ccc(Cn2c3c(cc(OC(C)=O)c2=O)Cc2ccccc2-3)cc1`, the TGI in [16] was 9.96 µM; in [2], 25.2 µM; in experiment [3], 35.9 µM; in experiment [4] it was > 50 µM; in experiment [5], > 50 µM; in experiment [6] it was 41.1 µM. In addition, the TGI in experiment [7] was 8.53 µM; in experiment [8] it was > 50 µM; in [9] it was 20.3 µM; in [10] it was 33.8 µM; in experiment [11], > 50 µM; in experiment [12], 43.6 µM. Further, the TGI in experiment [13] was > 50 µM; in experiment [14] it was 34 µM; in [15], 22.3 µM.

With `O=C1/C(=C\c2ccc([N+](=O)[O-])cc2)N(S(=O)(=O)c2ccccc2)c2ncccc21`, the TGI in [2] is 35 µM; in experiment [3], 44.3 µM; in experiment [4], 47.2 µM; in experiment [5], 45.3 µM; in experiment [6], 83.5 µM; in [7] it was 63.3 µM. Moreover, the TGI came out at 31.3 µM in experiment [8]; 70.2 µM in experiment [9]; 70.7 µM in experiment [10]; 75.4 µM in [11]; 43.1 µM in experiment [12]; 35 µM in experiment [13]. Also, the results for the TGI in experiment [14] and in experiment [15] were 31.9 µM and 26 µM, respectively.

Consider `COc1cc2c(cc1OCCCCCCCCCCN1C(=O)c3cccc4cccc(c34)C1=O)N=C[C@@H]1CCCN1C2=O`, for which the TGI is 27.5 µM in experiment [16]; 29.3 µM in experiment [2]; 50.2 µM in [3]; 18.8 µM in experiment [4]; 30 µM in experiment [5]; 5.25 µM in [6]. The TGI was 14.4 µM in [7]; 20.3 µM in experiment [8]; 24.7 µM in experiment [9]; 37.3 µM in [10]; 27.4 µM in [11]; 21.3 µM in [12]. For the same compound, the TGI in experiment [13] was > 100 µM; in experiment [14], > 100 µM; in experiment [15] it was 24.8 µM.

With `COc1ccc(Cn2c(=O)c(OC)c(C)c3cc4ccccc4cc32)cc1`, the TGI in experiment [16] is 63.5 µM; in [2], > 100 µM; in experiment [3], > 100 µM; in experiment [4] it was > 100 µM; in experiment [5] it was > 100 µM; in experiment [6] it was > 100 µM. The TGI in [7] was 87.9 µM; in experiment [8], > 100 µM; in experiment [9], > 100 µM; in experiment [10], > 100 µM; in [11] it was > 100 µM; in experiment [12], > 100 µM. Also, the TGI in experiment [13] was > 100 µM; in experiment [14], 70.8 µM; in experiment [15], 69.9 µM.

For `O=C1CS(=O)(=O)C(c2cccc(Oc3ccccc3)c2)N1c1ccc(Cl)cc1` (stereo not drawn), the TGI is 20.8 µM in experiment [16]; > 100 µM in experiment [2]; > 100 µM in [3]; 73.4 µM in experiment [4]; 53 µM in experiment [5]; 68.3 µM in experiment [6]. Further, the TGI in [7] is > 100 µM; in experiment [8], > 100 µM; in experiment [9], 47.8 µM; in experiment [10], > 100 µM; in [11], > 100 µM; in [12] it was > 100 µM. Further, the TGI in experiment [13] is > 100 µM; in [14], 61.4 µM; in experiment [15], 24.6 µM.

For the compound `C#CCn1c(=O)c(I)cn(/C(=C/C(=O)OCC)C(=O)OCC)c1=O`, the TGI in experiment [1] worked out at 33.7 µM; in experiment [2] it was 36.9 µM; in experiment [3], 34.8 µM; in experiment [4], 19.8 µM; in experiment [5], 9.41 µM; in experiment [6], 47.7 µM. Further, the TGI in [7] was > 84 µM; in [8], 3.37 µM; in experiment [9], 19.1 µM; in experiment [10], 35.1 µM; in experiment [11], > 59.2 µM; in [12] it was 31.2 µM. Moreover, the TGI in experiment [13] is 2.28 µM; in experiment [14], 1.67 µM; in experiment [15], 10.5 µM.

On to `COc1ccc(/C=C2\N=C(N3CCCCC3)NC2=O)cc1`, for which the TGI in experiment [16], in experiment [2], in experiment [3], in [4], in [5] and in experiment [6] was > 100 µM in each case. The TGI in experiment [7], in experiment [8], in experiment [9], in experiment [10], in [11] and in [12] was > 100 µM in each case. Besides, the TGI in experiment [13], in experiment [14] and in [15] was > 100 µM each time.

With `NC(N)=NS(=O)(=O)c1ccc(NNc2c3ccccc3nc3ccccc23)cc1`, the TGI stood at 27.3 µM in experiment [16]; 27.2 µM in experiment [2]; 28.6 µM in [3]; 33.9 µM in experiment [4]; 28.4 µM in [5]; 20.5 µM in [6]. Moreover, the TGI in experiment [7] is 90.7 µM; in experiment [8] it was 15.7 µM; in experiment [9] it was 31.1 µM; in [10], 34 µM; in experiment [11], 73 µM; in experiment [12], 50.3 µM. Moreover, the TGI in [13] worked out at 41.9 µM; in experiment [14], 42.7 µM; in experiment [15], 35.3 µM.

Consider `O=C1NC(=S)N/C1=C\c1cccs1`, for which the TGI in experiment [16], in [2], in [3], in experiment [4], in experiment [5] and in [6] was > 100 µM each time. In addition, the TGI in [7], in [8], in experiment [9], in experiment [10], in experiment [11] and in [12] was > 100 µM throughout. For the same compound, the TGI in [13], in experiment [14] and in experiment [15] was > 100 µM throughout.

Take `O=C(NC1=C(Cl)C(=O)c2ccccc2C1=O)c1ccccc1`: the TGI in experiment [16] was > 100 µM; in experiment [2], 66.1 µM; in experiment [3], > 100 µM; in [4] it was 47.6 µM; in [5], 28.1 µM; in experiment [6], 69 µM. In addition, the TGI in experiment [7] was 39.1 µM; in [8] it was 42.7 µM; in [9] it was > 100 µM; in experiment [10], > 100 µM; in [11] it was > 100 µM; in [12], > 100 µM. Moreover, the TGI in experiment [13] was determined as 47.4 µM; in experiment [14], 52.5 µM; in experiment [15] it was 90.7 µM.

As to `CCOC(=O)CCC(NC(=O)c1ccc(Nc2nc3ccc(C(F)(F)F)cc3nc2-c2ccccc2)cc1)C(=O)OCC` (stereo not drawn), the TGI was > 85.9 µM in experiment [16]; > 100 µM in experiment [2]; > 100 µM in experiment [3]; > 100 µM in experiment [4]; 75.4 µM in experiment [5]; > 100 µM in [6]. Moreover, the TGI in [7] was > 100 µM; in experiment [8], 76 µM; in experiment [9], > 100 µM; in [10] it was > 100 µM; in experiment [11], > 100 µM; in [12] it was > 100 µM. The TGI in [13] was 60.4 µM; in experiment [14], > 100 µM; in [15], 44.2 µM.

As to `CC(=O)SCCC(NC(=S)Nc1ccccc1)P(=O)(Oc1ccccc1)Oc1ccccc1` (stereo not drawn), the TGI in experiment [16], in [2], in experiment [3], in [4], in [5] and in experiment [6] was > 100 µM each time. For the same compound, the TGI in [7], in [8], in experiment [9], in experiment [10], in [11] and in experiment [12] was > 100 µM throughout. The TGI in experiment [13], in experiment [14] and in [15] was > 100 µM in each case.

Regarding `O=S(=O)(O)c1ccc(N=Nc2ccc3c(S(=O)(=O)O)cccc3c2O)c2ccccc12`, the TGI in [1], in [2], in experiment [3], in [4], in experiment [5] and in [6] was > 100 µM each time. Also, the TGI in experiment [7], in [8], in experiment [9], in [10], in [11] and in experiment [12] was > 100 µM in each case. Moreover, the TGI in [13], in experiment [14] and in experiment [15] was > 100 µM each time.

Turning to `COc1ccc(CC2COc3cc(OC)cc(OC)c3C2=O)cc1` (stereo not drawn), the TGI in experiment [1] is > 100 µM; in experiment [2] it was 40.4 µM; in [3] it was > 100 µM; in experiment [4], 18.1 µM; in experiment [5] it was > 100 µM; in experiment [7] it was 39.9 µM. The TGI in [8] was 46.5 µM; in experiment [9], 83.3 µM; in experiment [10], > 100 µM; in experiment [11], 48.3 µM; in experiment [13], 56 µM; in experiment [14], 82.3 µM. For the same compound, in experiment [15], the TGI is > 100 µM.

Turning to `Cc1c(N2C(=O)C(Cl)C2/C=C/c2ccccc2)c(=O)n(-c2ccccc2)n1C` (stereo not drawn), the TGI in experiment [2] was 56.3 µM; in [3], 29.5 µM; in [4], 28.1 µM; in experiment [5], 40 µM; in experiment [6] it was 61.6 µM; in [7] it was > 100 µM. In addition, the TGI in experiment [8] is > 100 µM; in experiment [9], 56.4 µM; in [10], > 100 µM; in [11] it was 48.1 µM; in experiment [12] it was 87.3 µM; in [13], > 100 µM. Further, the TGI in experiment [14] stood at 37.4 µM; in [15] it was 31.2 µM.

Take `O=C(O)CO[C@@]12C#C/C=C\C#C[C@@H]3N(C(=O)Oc4ccccc4)c4ccccc4[C@]14O[C@@]34CCC2`: the TGI in experiment [1] is > 100 µM; in [16], 28.7 µM; in experiment [2], > 100 µM; in experiment [3], 60.3 µM; in experiment [4] it was 6.29 µM; in experiment [5], 34.5 µM. Also, the TGI was > 100 µM in [6]; > 100 µM in [7]; > 100 µM in experiment [8]; > 100 µM in [9]; 85.2 µM in [10]; 33.1 µM in experiment [13]. For the same compound, the values for the TGI in [14] and in [15] were > 100 µM and 26.5 µM, respectively.

Regarding `COc1ccc2c(c1)CN1C(=N2)CSC1c1cccc(Br)c1` (stereo not drawn), the TGI is 57.8 µM in [16]; 72.3 µM in experiment [2]; > 100 µM in experiment [3]; > 100 µM in [4]; > 100 µM in experiment [5]; 61.2 µM in experiment [6]. The TGI in experiment [7] was > 100 µM; in experiment [9], > 100 µM; in experiment [10], > 100 µM; in experiment [11] it was > 100 µM; in experiment [12], 64.5 µM; in [13], > 100 µM. The results for the TGI in experiment [14] and in experiment [15] were > 100 µM and 53.1 µM, respectively.

As for `COC1(OC)N=C(N)C2(C#N)C(c3ccccc3)NC3=C(CCC3)C12C#N` (stereo not drawn), the TGI in [1], in experiment [16], in experiment [2], in experiment [3], in experiment [4] and in [5] was > 100 µM each time. Further, the TGI in experiment [6], in experiment [7], in experiment [9], in [10], in experiment [11] and in [13] was > 100 µM each time. Further, the TGI in [14] and in experiment [15] was > 100 µM in each case.
